Reference: US9234046B2, “Treatment of renal disease” (OPSONA Therapeutics Ltd, priority 2007, dated 2016)

Test system: C57BL/6 mice
Test: Warm renal ischemia/reperfusion, 30 minutes ischemia (Example 2)
Format: in vivo
Details: mean±SEM, n=6, 1 day after 30 min ischemia/reperfusion
Experimental: Nine Experimental groups were used as follows: • 1) Sham-operated mice sacrificed 1 day after surgery, n=6, • 2) PBS-vehicle-treated mice 15 min before ischemia/1 day reperfusion, n=6, • 3) Isotype control antibody 10 mg/kg-treated mice 15 minutes before ischemia/1 day reperfusion, n=6 (The isotype control antibody is mouse IgG1 isotype control purchased from RnD systems (catalogue number MAB002), this isotype control antibody having binding specificity for Keyhole Limpet Hemocyanin (KLH) antigen), • 4) OPN301 anti-TLR2 monoclonal antibody 10 mg/kg-treated mice 15 minutes before ischemia/1 day reperfusion, n=6, • 5) Pargyline 6 mg/kg-treated mice 15 minutes before ischemia/1 day reperfusion, n=6, • 6) PBS-vehicle-treated mice 15 minutes before ischemia/5 days reperfusion, n=6, • 7) Isotype control antibody (RnD systems catalogue number MAB002) 10 mg/kg-treated mice 15 minutes before ischemia/5 days reperfusion, n=6, • 8) OPN301 anti-TLR2 antibody 10 mg/kg-treated mice 15 minutes before ischemia/5 days reperfusion, n=6, • 9) Pargyline 6 mg/kg-treated mice 15 minutes before ischemia/5 days reperfusion, n=6. Experimental Warm Renal Ischemia/Reperfusion
Warm renal ischemia/reperfusion (I/R) experiments were adapted from a previous study (Stokman et al, 2005). Briefly, a wild type strain of C57BL/6 mice were anesthetized with 10 μl/g of a mix of 2.5 ml ketamine (Ketalar 50 mg/ml, Centravet; Lapalisse, France), 0.5 ml xylazine (Rompun 2.5%, Centravet; Lapalisse, France), and 7 ml NaCl 0.9% (Centravet; Lapalisse, France). During surgery, animals were set on a 35° C. hotplate. After a 2 millimeters incision, the jugular vein was exposed for intravenous injection (insulin syringe; VWR, Fontenay-sous-Bois, France) of 300 μl (1 min infusion) of the considered treatment. The incision was closed after haemostasis (5/0 Ethicrin thread, Ethicon; Auneau, France). Three centimetre in length abdominal cutaneous and muscular incisions were performed; renal pedicles were exposed and clamped for 30 minutes using microaneurysm clamps (AREX; Palaiseau, France). […]

C#CCN(C)Cc1ccccc1 [Pargyline]
MDA level (lipid peroxidation) (PBS-vehicle 0.082±0.004): 0.051±0.002 nmol/mg proteins
MPO activity (neutrophil accumulation in renal tissue) (PBS-vehicle 63.2±9.55): 53.48±5.34 U MPO/mg protein
F4/80-positive staining (macrophage infiltration) (treated 15 min before ischemia (antibodies 10 mg/kg, pargyline 6 mg/kg), PBS-vehicle 3.24±0.21): 1.39±0.15%
